In one data set the test system is N. gonorrhoeae FA1090. The experiment in a line: microbe, parasite or virus in culture. Particulars: FA1090, FB. The method, then:
37°C, in 5% CO2 then 10 μl aliquots plated onto GCB agar. The MIC was defined as the lowest concentration of an antimicrobial that prevented bacterial growth.
Determination of N. gonorrhoeae resistance to Oct-TriA1
Single colonies of N. gonorrhoeae FA1090 were inoculated into 2 mL of FB media supplemented with 1% Vitox (Oxoid) and grown overnight. After 24 hours, 240 µl of a 1/ 5,000 dilution of FA1090 in 2x FB was added to a 48-well plate containing 2-fold dilutions of either Oct-TriA1-c (final concentration, 12.5 µg/ml to 0.2 µg/ml) or ciprofloxacin (final concentration, 16.4 to 0.001 µg/ml) in a total volume of 480
µl. Plates were incubated at 37 °C, 5% CO2 with shaking (180 rpm). After 24 hours, ODA600 of each well […]
to fresh media containing all concentrations of antimicrobials for a total of 35 days. […]

The test system of the next data set is human erythrocytes. Kind of data set: Hemolysis of human erythrocytes. The data set is classed as cell-based. The method, then:
For hemolysis, whole human blood (1 ml; K2EDTA; Cambridge Bioscience) was washed in PBS then 0.5% added to an equal volume of peptides or ADCs in 96-well V-bottomed polypropylene plates and incubated at 37°C for 1 hr. Cells were pelleted at 1,000 × g for 10 min and the absorbance at OD415 measured. Positive (melittin, 2.5 µM, Merck Life Science) and negative (PBS) controls were normalised as 100 and 0% hemolysis, respectively. […]

Data set [1] deals with N. gonorrhoeae G97687 (MDR isolate). Particulars: G97687, MDR isolate resistant to ESCs and azithromycin; microdilution in FB, 24 hr, 37°C, 5% CO2. The procedure: (§1) Determination of Oct-TriA1 Minimum Inhibitory Concentration (MIC)
(§2) N. gonorrhoeae was resuspended in PBS to an ODA600 1.0, and ̴5 × 10^4 CFU added to wells of a microdilution plate containing dilutions of antimicrobials in FB. Plates were incubated for 24 hr at […]
(§3) 37°C, in 5% CO2 then 10 μl aliquots plated onto GCB agar. The MIC was defined as the lowest concentration of an antimicrobial that prevented bacterial growth. […]
(§4) Peptide concentration in ADC preparations
(§5) Peptide concentrations for ADCs were calculated from the antibody concentration, the drug-to-antibody ratio (DAR), and the peptide molecular weight using the following formula:
(§6) Conc. peptide (µg/mL) = Conc. ADC (µg/mL) × DAR x MWpeptide (Da) […]
(§7) Where Conc. ADC is the ADC/ mAb concentration, MWADC is the mAb molecular weight (150 kDa), MWpeptide is the peptide molecular weight and DAR is the average number of peptides per conjugate.
(§8) This formula was used to convert ADC concentrations to peptide concentrations for all assays. […]
In general terms: In broth dilution the organism is exposed to a series of concentrations in liquid medium.

Another data set relates to N. gonorrhoeae WHO F. Particulars: microdilution in FB, ~5 × 10^4 CFU, 24 hr, 37°C, 5% CO2, lowest concentration preventing growth. The method, then: (§9) columns (ThermoFisher scientific). Activated mAb was added to 0.9 mg of Oct-TriA1 analogues (synthesised by ISCA Biochemicals, UK) and incubated at room temperature for 60 min. ADCs were dialysed using slide-A-Lyzer cassette (20K MWCO, ThermoFisher scientific) into PBS overnight at 4 °C […]
(§10) MALDI-TOF MS analysis for determination of intact mass mAbs or ADCs with a concentration of 1 mg/mL were acidified with 1% trifluoroacetic acid and mixed with Super DHB matrix, 1 μl was spotted onto an MTP Anchorchip 600/384. For every mAb, three sample spots were prepared from the same solution using three protocols advised by the manufacturer. MALDI-TOF measurements were performed on a Microflex LRF mass spectrometer, equipped with a 60Hz nitrogen laser at 337nm. Number of peptides conjugated was calculated using the MALDI-TOF molecular weights (MW) [MW = M+] of each ADC, the unconjugated antibody (mAb), and the molecular weights of Oct-TriA1 analogues using the following equation.
(§11) Number of peptides = MW ADC − MW mAb […]
as §1, §2, §3, §4, §5, §6, §7, §8

Another data set concerns N. gonorrhoeae WHO P. To be noted: microdilution in FB, ~5 × 10^4 CFU, 24 hr, 37°C, 5% CO2. The procedure: as §9, §10, §11, §1, §2, §3, §4, §5, §6, §7, §8
Another data set relates to N. gonorrhoeae WHO O. To be noted: microdilution in FB, ~5 × 10^4 CFU, 24 hr, 37°C, 5% CO2. The method, then: as §9, §10, §11, §1, §2, §3, §4, §5, §6, §7, §8
The test system of another data set is N. gonorrhoeae WHO N. To be noted: microdilution in FB, ~5 × 10^4 CFU, 24 hr, 37°C, 5% CO2. The method, then: as §9, §10, §11, §1, §2, §3, §4, §5, §6, §7, §8
Data set [2] deals with HK-2 cells. The experiment in a line: LDH release cytotoxicity. The data set is classed as cell-based, human. To be noted: n = 3. The procedure: HK-2 cells (CRL-2190™, Americab Type Culutre Collection (ATCC)), a proximal renal tubule cell(7), and End1/E6E7 (CRL-2615™, ATCC) upper cervical epithelial cells(8) were cultured in Keratinocyte Serum Free Medium (Invitrogen, Life Technologies Ltd.) with human recombinant EGF (5 ng ml-1) and bovine pituitary extract (0.05 mg ml−1) at 37°C in 5% CO2. Cells were seeded in 96-well plates (Corning, Polystyrene) at a density of 2 × 10^4 cells/well 24 hr prior; Triton-X-100 (0.1%) and Digitonin (30 μg ml−1) were used as controls. Lactate dehydrogenase (LDH) release was measured using the Biovision kit; the OD490 was assessed in a SpectraMax M5 plate reader. […]

The subject of data set [3] is HK-2 cells. Kind of data set: MTT cell viability. Type of data set: cell-based, human. Particulars: n = 3. The procedure:
HK-2 cells (CRL-2190™, Americab Type Culutre Collection (ATCC)), a proximal renal tubule cell(7), and End1/E6E7 (CRL-2615™, ATCC) upper cervical epithelial cells(8) were cultured in Keratinocyte Serum Free Medium (Invitrogen, Life Technologies Ltd.) with human recombinant EGF (5 ng ml-1) and bovine pituitary extract (0.05 mg ml−1) at 37°C in 5% CO2. […]
Cell viability was assessed by 3-(4,5-dimethylthiazol-2-yl)-2,5-diphenyl-2H-tetrazolium bromide (MTT) assay(9); 200 µl fresh cell media and 250 µg of MTT was added to cells. Plates were Incubated at 37 °C, 5% CO2 for 3 hr then 200 µl of DMSO was added to wells with 25 µl glycine buffer (0.1 M glycine, 0.1 M NaCl pH 10.5) and shaken at 1000 r.p.m. for 10 min. Absorbance was read at OD570 nm. Cell viability was calculated as (sample absorbance – cell free blank/media control absorbance) x100.

Molecules are shown by their SMILES. In brackets after ≈: the same amount, converted by molar mass. Where a SMILES comes first, the peptide text is derived from it. [ ]: non-standard residue; d: D form. The star is where a group is joined. d(aIle) = CC[C@H](C)[C@@H](N)C(=O)O; dDab = NCC[C@@H](N)C(=O)O; Octanoyl = CCCCCCCC(=O)*; Dab = NCC[C@H](N)C(=O)O; AEEA = NCCOCCOCC(=O)O

The term HC50 denotes the concentration giving 50% haemolysis. Higher therefore signals weaker haemolysis. Take `CCCCCCCC(=O)N[C@@H](C(=O)N[C@H](CCN)C(=O)NCC(=O)N[C@H](CO)C(=O)N[C@H](Cc1c[nH]c2ccccc12)C(=O)N[C@@H](CO)C(=O)N[C@@H](CCN)C(=O)N[C@H](CCN)C(=O)N[C@@H](Cc1ccccc1)C(=O)N[C@@H](CCC(=O)O)C(=O)N[C@H](C(=O)N[C@@H](C(=O)N[C@@H](C)C(=O)NCCOCCOCC(=O)N[C@@H](CC(C)C)C(=O)N1CCC[C@H]1C(=O)N[C@@H](CCCNC(=N)N)C(=O)N1CCC[C@H]1C(=O)N1CCC[C@H]1C(=O)O)[C@@H](C)CC)C(C)C)C(C)C` [Oct-TriA1-c] (Octanoyl-[dV][dDab]G[dS][dW]S[Dab][dDab]FEV[d(aIle)]A[AEEA]LPRPP-OH): in the data set with N. gonorrhoeae FA1090 (24 h, MIC = less than 50% growth (OD600) vs no antimicrobial), the “MIC at start of resistance evolution” value was determined as 1.56 µg/mL. Moreover, the “MIC after 35 d of resistance evolution” value in the data set on N. gonorrhoeae FA1090 (serial passage 35 d, MIC = less than 50% growth (OD600)) was 12.5 µg/mL. In addition, the “fold reduced hemolytic activity” value in the data set on human erythrocytes (compared with unmodified Oct-TriA1) was greater than 25 fold. For the same compound, the “Hemolysis (HC50)” value in the data set on human erythrocytes (concentration of peptide or ADC that lyses 50% of erythrocytes, washed human blood 0.5%, 37°C, 1 hr, OD415, melittin 2.5 µM = 100%, PBS = 0%, n = 3) is given as >1,000 μg mL^−1. The HC50 in the data set with human erythrocytes (human erythrocytes, 37°C, 1 hr, OD415) is greater than 1 mg/mL. The MIC worked out at 1.56 µg/mL (≈ 0.701 µM) in [1]; 1.56 µg/mL (≈ 0.701 µM) against N. gonorrhoeae WHO F; 3.13 µg/mL (≈ 1.41 µM) in the data set with N. gonorrhoeae WHO P; 3.13 µg/mL (≈ 1.41 µM) in the data set with N. gonorrhoeae WHO O; 3.13 µg/mL (≈ 1.41 µM) in the data set with N. gonorrhoeae WHO N. In the data set on HK-2 cells [2] (2 × 10^4 cells/well, LDH release OD490, 4 h), the “LDH (EC50) 4 h” value turned out to be 86.42 µg/mL. In the data set on HK-2 cells [2] (LDH release OD490, 24 h), the “LDH (EC50) 24 h” value worked out at 57.71 µg/mL. Also, the “LDH (EC50) 48 h” value in the data set with HK-2 cells [2] (LDH release OD490, 48 h) turned out to be 50.03 µg/mL. The “MTT (EC50) 4 h” value in the data set on HK-2 cells [3] (MTT reduction OD570, 4 h) was determined as 101.98 µg/mL. Besides, in the data set with HK-2 cells [3] (MTT reduction OD570, 24 h), the “MTT (EC50) 24 h” value was 78.78 µg/mL. For the same compound, the “MTT (EC50) 48 h” value with HK-2 cells [3] (MTT reduction OD570, 48 h) is 61.09 µg/mL.

Values taken from PMC13439108, “An antibody–drug conjugate active against antibiotic-resistant Neisseria gonorrhoeae” (Proceedings of the National Academy of Sciences of the …, 2026).
